Laboratory results from ChEMBL document CHEMBL1201862, “PubChem BioAssay data set” (2004).
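Each compound was tested at five concentrations against cells in 96-well plates for 48 hours. GI50 marks 50% less growth.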 Activity calls are given as the source filed them. Cut-off read from the data, not from the text of the source: active = GI50 up to about 1.1 µM and inactive = higher.

How the values were obtained:
Assay in all cases: NCI-60 cell line screen, 48 h
BT-549 = tested on: BT-549
Malme-3M = tested on: Malme-3M
SK-MEL-28 = tested on: SK-MEL-28
SW-620 = tested on: SW-620
K562 = tested on: K562
EKVX = tested on: EKVX
SN12C = tested on: SN12C
COLO 205 = tested on: COLO 205
SK-MEL-5 = tested on: SK-MEL-5
LOX IMVI = tested on: LOX IMVI
ACHN = tested on: ACHN
NCI-H226 = tested on: NCI-H226
HT-29 = tested on: HT-29
SK-OV-3 = tested on: SK-OV-3
MCF7 = tested on: MCF7
SF-539 = tested on: SF-539
KM12 = tested on: KM12
SK-MEL-2 = tested on: SK-MEL-2
OVCAR-8 = tested on: OVCAR-8
NCI-H460 = tested on: NCI-H460

Row | Structure (SMILES) | GI50 (BT-549) | GI50 (Malme-3M) | GI50 (SK-MEL-28) | GI50 (SW-620) | GI50 (K562) | GI50 (EKVX) | GI50 (SN12C) | GI50 (COLO 205) | GI50 (SK-MEL-5) | GI50 (LOX IMVI) | GI50 (ACHN) | GI50 (NCI-H226) | GI50 (HT-29) | GI50 (SK-OV-3) | GI50 (MCF7) | GI50 (SF-539) | GI50 (KM12) | GI50 (SK-MEL-2) | GI50 (OVCAR-8) | GI50 (NCI-H460)
1 | Cc1[nH]c2ncn(N)c(=N)c2c1Cc1ccccc1 | > 100 µM (inactive) | 6.76 µM (inactive) | > 100 µM (inactive) | > 100 µM (inactive) | > 100 µM (inactive) | > 100 µM (inactive) | > 100 µM (inactive) | > 100 µM (inactive) | 19.1 µM (inactive) | 67.1 µM (inactive) | > 100 µM (inactive) | > 100 µM (inactive) | 67.9 µM (inactive) | > 100 µM (inactive) | 33 µM (inactive) | 58.2 µM (inactive) | > 100 µM (inactive) | > 100 µM (inactive) | > 100 µM (inactive) | –
2 | COC12C=CC(CC1)C(C)(C)C2=O (configuration not stated) | > 100 µM (inactive) | > 100 µM (inactive) | > 100 µM (inactive) | > 100 µM (inactive) | > 100 µM (inactive) | > 100 µM (inactive) | > 100 µM (inactive) | > 100 µM (inactive) | > 100 µM (inactive) | – | > 100 µM (inactive) | > 100 µM (inactive) | > 100 µM (inactive) | > 100 µM (inactive) | > 100 µM (inactive) | > 100 µM (inactive) | > 100 µM (inactive) | > 100 µM (inactive) | > 100 µM (inactive) | > 100 µM (inactive)
3 | NCC(=O)N1CCN(c2nc(N3CCCC3)c3nc(Cl)c(NCc4ccccc4)nc3n2)CC1 | 2.09 µM (inactive) | 2.15 µM (inactive) | 2.23 µM (inactive) | 2.66 µM (inactive) | – | 1.87 µM (inactive) | 1.85 µM (inactive) | 1.7 µM (inactive) | 1.72 µM (inactive) | 1.78 µM (inactive) | 2.11 µM (inactive) | 3.66 µM (inactive) | 1.91 µM (inactive) | 1.81 µM (inactive) | 1.83 µM (inactive) | 1.99 µM (inactive) | 2.04 µM (inactive) | 1.86 µM (inactive) | 1.77 µM (inactive) | 1.85 µM (inactive)
4 | O=c1cc(CO)oc(C(O)c2ccccc2)c1O (configuration not stated) | > 100 µM (inactive) | > 100 µM (inactive) | > 100 µM (inactive) | > 100 µM (inactive) | – | – | > 100 µM (inactive) | > 100 µM (inactive) | > 100 µM (inactive) | > 100 µM (inactive) | > 100 µM (inactive) | > 100 µM (inactive) | > 100 µM (inactive) | > 100 µM (inactive) | > 100 µM (inactive) | > 100 µM (inactive) | > 100 µM (inactive) | > 100 µM (inactive) | > 100 µM (inactive) | > 100 µM (inactive)
5 | COc1ccc(NCC(=O)Nn2c(C)nc3ccc(S(=O)(=O)Nc4ccc(OC)cc4)cc3c2=O)cc1 | > 100 µM (inactive) | > 100 µM (inactive) | > 100 µM (inactive) | > 100 µM (inactive) | > 100 µM (inactive) | > 100 µM (inactive) | > 100 µM (inactive) | > 100 µM (inactive) | – | > 100 µM (inactive) | > 100 µM (inactive) | > 100 µM (inactive) | > 100 µM (inactive) | > 100 µM (inactive) | > 100 µM (inactive) | > 100 µM (inactive) | > 100 µM (inactive) | > 100 µM (inactive) | > 100 µM (inactive) | > 100 µM (inactive)
6 | Nc1ccc(Oc2ccc(C3(c4ccc(Oc5ccc(N)cc5)cc4)C4CC5CC(C4)CC3C5)cc2)cc1 | 11.6 µM (inactive) | 23.7 µM (inactive) | 16.5 µM (inactive) | 4.26 µM (inactive) | 3.89 µM (inactive) | 9.53 µM (inactive) | 6.28 µM (inactive) | 3.72 µM (inactive) | 14.4 µM (inactive) | 7.31 µM (inactive) | 7.8 µM (inactive) | 19.9 µM (inactive) | 0.489 µM (active) | – | 3.55 µM (inactive) | 10.9 µM (inactive) | 3.77 µM (inactive) | 23 µM (inactive) | 9.18 µM (inactive) | 2.42 µM (inactive)
7 | CN(/N=C/c1cccc2cccnc12)c1ccc(Cl)cc1[N+](=O)[O-] | > 100 µM (inactive) | > 100 µM (inactive) | – | > 100 µM (inactive) | > 100 µM (inactive) | > 100 µM (inactive) | > 100 µM (inactive) | > 100 µM (inactive) | > 100 µM (inactive) | – | > 100 µM (inactive) | > 100 µM (inactive) | 59.4 µM (inactive) | > 100 µM (inactive) | 31.6 µM (inactive) | > 100 µM (inactive) | 96.8 µM (inactive) | > 100 µM (inactive) | > 100 µM (inactive) | 45.7 µM (inactive)
8 | CSc1nc2c(c(=O)n1C)N=C(c1ccccc1)[C@H](C(CC(=O)c1ccccc1)c1ccccc1)C(c1ccccc1)N2 (some centres not stated) | > 100 µM (inactive) | > 100 µM (inactive) | > 100 µM (inactive) | 26.1 µM (inactive) | 54.5 µM (inactive) | 15.8 µM (inactive) | > 100 µM (inactive) | > 100 µM (inactive) | > 100 µM (inactive) | > 100 µM (inactive) | > 100 µM (inactive) | > 100 µM (inactive) | > 100 µM (inactive) | – | 37.1 µM (inactive) | > 100 µM (inactive) | 14.7 µM (inactive) | > 100 µM (inactive) | > 100 µM (inactive) | 9.2 µM (inactive)
9 | CCc1cccc(C(C)C)c1NC(=O)C(=O)C1C(=O)Nc2ccccc2[S+]1[O-] (configuration not stated) | > 100 µM (inactive) | > 100 µM (inactive) | > 100 µM (inactive) | > 100 µM (inactive) | – | 57.8 µM (inactive) | > 100 µM (inactive) | > 100 µM (inactive) | > 100 µM (inactive) | > 100 µM (inactive) | > 100 µM (inactive) | > 100 µM (inactive) | > 100 µM (inactive) | > 100 µM (inactive) | > 100 µM (inactive) | > 100 µM (inactive) | > 100 µM (inactive) | > 100 µM (inactive) | > 100 µM (inactive) | > 100 µM (inactive)
10 | Oc1[nH]c(Nc2cccc(Cl)c2)nc2ncnc1-2 | > 100 µM (inactive) | > 100 µM (inactive) | – | > 100 µM (inactive) | 86.5 µM (inactive) | > 100 µM (inactive) | > 100 µM (inactive) | > 100 µM (inactive) | > 100 µM (inactive) | 80.7 µM (inactive) | > 100 µM (inactive) | > 100 µM (inactive) | 53.7 µM (inactive) | > 100 µM (inactive) | > 100 µM (inactive) | 82.8 µM (inactive) | > 100 µM (inactive) | 86.3 µM (inactive) | > 100 µM (inactive) | > 100 µM (inactive)
11 | Cc1cc(O)c2c(c1O)C(=O)c1c(O)ccc(O)c1C2=O [Cynodontin] | > 100 µM (inactive) | > 100 µM (inactive) | – | > 100 µM (inactive) | > 100 µM (inactive) | > 100 µM (inactive) | > 100 µM (inactive) | > 100 µM (inactive) | > 100 µM (inactive) | > 100 µM (inactive) | > 100 µM (inactive) | > 100 µM (inactive) | > 100 µM (inactive) | > 100 µM (inactive) | > 100 µM (inactive) | > 100 µM (inactive) | > 100 µM (inactive) | > 100 µM (inactive) | > 100 µM (inactive) | > 100 µM (inactive)
